Results as given in PubChem BioAssay AID248 (DTP/NCI, 2004).
“And” between values parts separate entries of the source, which are not always exact repeats. Equal values may be shown once. Toxic doses and inconclusive results are not listed. No stated cut-off is given here; in the data, active means T/C of 150% or more; inactive means T/C below 125%.

Tested on: L1210 leukemia ip in BDF1 mice, survival T/C
Experiment: NCI In Vivo Anticancer Drug Screen. Data for tumor model L1210 Leukemia (intraperitoneal) in B6D2F1 (BDF1) mice
Details: endpoint: mean survival time, higher = longer survival
How it was run: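 Mice bearing the transplanted tumor received compound or vehicle. Survival of the treated group was divided by that of the vehicle-treated control group to give the ratio.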

[1] = dose: 100.0 mg/kg/injection, schedule: Q01DX009 (ip), vehicle: gum acacia
[2] = dose: 100.0 mg/kg/injection, schedule: Q04DX003 (ip), vehicle: gum acacia
[3] = dose: 200.0 mg/kg/injection, schedule: Q01DX009 (ip), vehicle: gum acacia
[4] = dose: 200.0 mg/kg/injection, schedule: Q04DX003 (ip), vehicle: gum acacia
[5] = dose: 400.0 mg/kg/injection, schedule: Q04DX003 (ip), vehicle: gum acacia
[6] = dose: 100.0 mg/kg/injection, schedule: Q01DX001 (ip), vehicle: carboxymethylcellulose (CMC)
[7] = dose: 100.0 mg/kg/injection, schedule: Q04DX003 (ip), vehicle: saline
[8] = dose: 200.0 mg/kg/injection, schedule: Q01DX001 (ip), vehicle: carboxymethylcellulose (CMC)
[9] = dose: 400.0 mg/kg/injection, schedule: Q01DX001 (ip), vehicle: carboxymethylcellulose (CMC)
[10] = dose: 50.0 mg/kg/injection, schedule: Q01DX009 (ip), vehicle: saline
[11] = dose: 100.0 mg/kg/injection, schedule: Q01DX009 (ip), vehicle: saline
[12] = dose: 200.0 mg/kg/injection, schedule: Q01DX009 (ip), vehicle: saline
[13] = dose: 100.0 mg/kg/injection, schedule: Q04DX003 (ip), vehicle: Klucel (hydroxypropylcellulose) (HPC)
[14] = dose: 200.0 mg/kg/injection, schedule: Q04DX003 (ip), vehicle: Klucel (hydroxypropylcellulose) (HPC)
[15] = dose: 400.0 mg/kg/injection, schedule: Q04DX003 (ip), vehicle: Klucel (hydroxypropylcellulose) (HPC)

Measured: T/C

CC(CCC(=O)O)(c1cc(Cl)c(O)c(Cl)c1)c1cc(Cl)c(O)c(Cl)c1
inactive: [1] 95 % of control | [2] 100 % of control | [3] 103 % of control | [4] 92 % of control | [5] 96 % of control

BrCCN(CCBr)c1ccc2c3c(cccc13)-c1ccccc1-2
inactive: dose: 0.3 mg/kg/injection, schedule: Q01DX Z (ip), vehicle: other 117 % of control | dose: 0.7 mg/kg/injection, schedule: Q01DX Z (ip), vehicle: other 120 % of control | dose: 1.5 mg/kg/injection, schedule: Q01DX Z (ip), vehicle: other 123 % of control | dose: 6.25 mg/kg/injection, schedule: Q01DX009 (ip), vehicle: acetone 112 % of control | dose: 7.5 mg/kg/injection, schedule: Q01DX Z (ip), vehicle: other 101 % of control | dose: 11.0 mg/kg/injection, schedule: Q01DX Z (ip), vehicle: other 112 % of control | dose: 50.0 mg/kg/injection, schedule: Q01DX001 (ip), vehicle: carboxymethylcellulose (CMC) 124 % of control | [6] 114 % of control | [7] 120 % of control | [8] 124 % of control | [9] 120 % of control

COc1ccc(NCc2cnc3nc(N)nc(N)c3n2)cc1
inactive: dose: 20.0 mg/kg/injection, schedule: Q01DX009 (ip), vehicle: saline with Tween-80 110 % of control | dose: 40.0 mg/kg/injection, schedule: Q01DX009 (ip), vehicle: saline with Tween-80 108 % of control | dose: 80.0 mg/kg/injection, schedule: Q01DX009 (ip), vehicle: saline with Tween-80 106 % of control

COC(OC)c1[nH]c(=S)[nH]c(=O)c1Cc1ccc(-c2ccccc2)cc1
inactive: dose: 100.0 mg/kg/injection, schedule: Q04DX003 (ip), vehicle: saline with Tween-80 101 % of control | dose: 200.0 mg/kg/injection, schedule: Q04DX003 (ip), vehicle: saline with Tween-80 100 % of control | dose: 400.0 mg/kg/injection, schedule: Q04DX003 (ip), vehicle: saline with Tween-80 95 % of control

N#CC(C#N)=Cc1ccc([N+](=O)[O-])s1
inactive: dose: 12.5 mg/kg/injection, schedule: Q04DX002 (ip), vehicle: Klucel (hydroxypropylcellulose) (HPC) 96 % of control | dose: 25.0 mg/kg/injection, schedule: Q04DX002 (ip), vehicle: Klucel (hydroxypropylcellulose) (HPC) 100 % of control

NCCOc1ccc([N+](=O)[O-])cc1Cl
inactive: [10] 93 % of control | dose: 75.0 mg/kg/injection, schedule: Q01DX001 (ip), vehicle: other 96 % of control | [11] 98 % of control | [7] 121 % of control | dose: 150.0 mg/kg/injection, schedule: Q01DX001 (ip), vehicle: other 100 % of control | [12] 96 % of control | dose: 200.0 mg/kg/injection, schedule: Q04DX003 (ip), vehicle: saline 103 % of control | dose: 300.0 mg/kg/injection, schedule: Q01DX001 (ip), vehicle: other 96 % of control

OC1CC2CC1C1C3C=CC(C3)C21 (stereo not drawn)
inactive: dose: 6.25 mg/kg/injection, schedule: Q01DX009 (ip), vehicle: saline with Tween-80 98 % of control | dose: 12.5 mg/kg/injection, schedule: Q01DX009 (ip), vehicle: saline with Tween-80 101 % of control | dose: 25.0 mg/kg/injection, schedule: Q01DX009 (ip), vehicle: saline with Tween-80 101 % of control

CCOC(=S)c1ccc(NS(=O)(=O)c2ccc(C)cc2)cc1
inactive: dose: 100.0 mg/kg/injection, schedule: Q01DX001 (ip), vehicle: saline with Tween-80 100 % of control | dose: 200.0 mg/kg/injection, schedule: Q01DX001 (ip), vehicle: saline with Tween-80 107 % of control | dose: 400.0 mg/kg/injection, schedule: Q01DX001 (ip), vehicle: saline with Tween-80 102 % of control

O=[N+]([O-])c1ccc2c(c1)/C(=N/O)CCC2
inactive: dose: 100.0 mg/kg/injection, schedule: Q01DX009 (ip), vehicle: saline with Tween-80 110 % of control | [13] 96 % of control | dose: 200.0 mg/kg/injection, schedule: Q01DX009 (ip), vehicle: saline with Tween-80 92 % of control | [14] 91 % of control | dose: 400.0 mg/kg/injection, schedule: Q01DX009 (ip), vehicle: saline with Tween-80 90 % of control | [15] 104 % of control

O=C(Nc1ccc(Cl)cc1C(F)(F)F)Sc1ccc(Cl)cc1
inactive: dose: 100.0 mg/kg/injection, schedule: Q01DX001 (ip), vehicle: gum acacia 103 % of control and 104 % of control | [1] 92 % of control | dose: 100.0 mg/kg/injection, schedule: Q04DX002 (ip), vehicle: gum acacia 99 % of control and 88 % of control | [2] 92 % of control and 87 % of control | dose: 200.0 mg/kg/injection, schedule: Q01DX001 (ip), vehicle: gum acacia 98 % of control and 103 % of control | [3] 90 % of control | dose: 200.0 mg/kg/injection, schedule: Q04DX002 (ip), vehicle: gum acacia 101 % of control and 102 % of control | [4] 92 % of control and 109 % of control | dose: 400.0 mg/kg/injection, schedule: Q01DX001 (ip), vehicle: gum acacia 100 % of control and 103 % of control | dose: 400.0 mg/kg/injection, schedule: Q04DX002 (ip), vehicle: gum acacia 97 % of control and 89 % of control | [5] 97 % of control and 90 % of control

c1cc(C[N+]23CN4CN(CN(C4)C2)C3)cs1
inactive: dose: 25.0 mg/kg/injection, schedule: Q04DX003 (ip), vehicle: saline 93 % of control | dose: 50.0 mg/kg/injection, schedule: Q04DX003 (ip), vehicle: saline 95 % of control

Cc1ncnc2c1ncn2C1OC(CO)C(O)C1O (stereo not drawn)
inactive: dose: 0.24 mg/kg/injection, schedule: Q01DX015 (ip), vehicle: saline 103 % of control | dose: 0.36 mg/kg/injection, schedule: Q01DX015 (ip), vehicle: saline 106 % of control | dose: 0.54 mg/kg/injection, schedule: Q01DX015 (ip), vehicle: saline 116 % of control | dose: 1.21 mg/kg/injection, schedule: Q01DX015 (ip), vehicle: saline 109 % of control and 110 % of control

C#CCNc1ncnc2c1ncn2C1OC(CO)C(O)C1O (stereo not drawn)
inactive: dose: 50.0 mg/kg/injection, schedule: Q01DX005 (ip), vehicle: saline 105 % of control | dose: 100.0 mg/kg/injection, schedule: Q01DX005 (ip), vehicle: saline 101 % of control | dose: 200.0 mg/kg/injection, schedule: Q01DX005 (ip), vehicle: saline 94 % of control

O=C(O)/C(S)=C/c1ccc2c(c1)OCO2
inactive: [6] 100 % of control | [8] 102 % of control | [9] 102 % of control

NC(=O)NC=O
inactive: dose: 50.0 mg/kg/injection, schedule: Q01DX009 (ip), vehicle: Klucel (hydroxypropylcellulose) (HPC) 96 % of control | dose: 50.0 mg/kg/injection, schedule: Q04DX003 (ip), vehicle: Klucel (hydroxypropylcellulose) (HPC) 101 % of control | dose: 100.0 mg/kg/injection, schedule: Q01DX009 (ip), vehicle: Klucel (hydroxypropylcellulose) (HPC) 102 % of control | [13] 105 % of control | dose: 200.0 mg/kg/injection, schedule: Q01DX009 (ip), vehicle: Klucel (hydroxypropylcellulose) (HPC) 96 % of control | [14] 115 % of control

CC(=O)C(C#N)c1c(C)cc(C)cc1C (stereo not drawn)
inactive: dose: 37.5 mg/kg/injection, schedule: Q04DX003 (ip), vehicle: saline 97 % of control | dose: 75.0 mg/kg/injection, schedule: Q01DX001 (ip), vehicle: saline 97 % of control | dose: 75.0 mg/kg/injection, schedule: Q04DX003 (ip), vehicle: saline 92 % of control | dose: 150.0 mg/kg/injection, schedule: Q01DX001 (ip), vehicle: saline 105 % of control | dose: 150.0 mg/kg/injection, schedule: Q04DX003 (ip), vehicle: saline 96 % of control

N#CCN1CCCCC1
inactive: dose: 25.0 mg/kg/injection, schedule: Q01DX009 (ip), vehicle: saline 115 % of control | [10] 112 % of control

CCCCSc1ncc(C)c(N(C)C)n1
inactive: dose: 25.0 mg/kg/injection, schedule: Q01DX Z (ip), vehicle: methylcellulose (MC) 92 % of control | dose: 50.0 mg/kg/injection, schedule: Q01DX Z (ip), vehicle: methylcellulose (MC) 89 % of control

Cc1ccc(S(=O)(=O)Nc2ccc([N+](=O)[O-])cc2OS(=O)(=O)c2ccc(C)cc2)cc1
inactive: [11] 97 % of control | [12] 101 % of control | dose: 400.0 mg/kg/injection, schedule: Q01DX009 (ip), vehicle: saline 95 % of control

O=c1[nH][nH]c(Cc2ccccc2)c1-c1ccccc1
inactive: [13] 102 % of control | [14] 98 % of control | [15] 101 % of control
